Reference: patent EP0317956A2, “Anti-tumor prodrugs” (Bristol-Myers Squibb Company, priority 1987, dated 1989)

Assays:
L1210 leukemia = assay: In vivo tumor test, i.p. implanted L1210 leukemia; set-up: species or system mice; settings: for Optimum Dose: L1210, 10⁶ ascites cells i.p., single i.p. injection of drug, day 1; for in-vivo activity: L1210, optimal i.p. dose; for Maximum Effect T/C: L1210, T/C = median survival time (treated/control) X 100, single i.p. injection day 1, 30 days
Procedure: (§1) The in vivo tumor tests were performed utilizing methods described in detail in a previous publication (8). The lymphatic leukemias P-388 and L-1210 were used for initial testing of mitomycin and daunomycin derivatives respectively. Selected compounds were tested against subcutaneouly implanted B16 melanoma with treatment administered intravenously. Experimental parameters are shown in the footnotes of the accompanying tables.
(§2) Three murine tumor models were used to evaluate the in-vivo activities of the drugs.

[1] = Model study: stability and dithiothreitol-induced fragmentation of model benzyl carbamate disulfide; assay type: physicochemical
Text: In order to establish that benzyl carbamates with suitably positioned disulfide substituents would undergo fragmentation of the carbamate upon disulfide reduction, model studies were undertaken using p-nitroaniline as a leaving group. The synthesis of the model benzyl carbamate 12 is depicted in Figure 1.
The course of reaction was monitored by uv/vis spectroscopy, in which 14 (λ max 371 nm) was easily distinguished from the starting material 12 (λ max 313nm). […] It was also observed that the release of 14 was slightly faster at 37°C than at room temperature.

B16 melanoma = assay: In vivo tumor test, subcutaneously implanted B16 melanoma; set-up: species or system mice; settings: for Optimum Dose / Maximum Effect T/C: B16 melanoma s.c., three i.v. injections, days 1, 5 and 9; for Maximum Effect T/C: 60 days; for antitumor activity: subcutaneously implanted B16 melanoma, i.v. days 1, 5 and 9
Procedure: as §1
Some of the MMC and MMA derivatives were tested for activity against subcutaneously implanted B16 melanoma. In these experiments, the drugs were administered i.v. on days 1,5 and 9 after implantation of the tumor. The cleavable MMC prodrugs, 20 and 21, were about as active as MMC. […] The cleavable prodrugs, 24 - 27, were as active as MMA, with 24 showing slightly greater activity.

P388 leukemia = assay: In vivo tumor test, i.p. implanted P388 leukemia; set-up: species or system mice; settings: for Optimum Dose: P388, 10⁶ ascites cells i.p., single i.p. injection of drug, day 1; for Maximum Effect T/C: P388, T/C = median survival time (treated/control) X 100, single i.p. injection day 1, 30 days
Procedure: as §1, §2

Compound | Optimum Dose (B16 melanoma) [mg/kg/inj] | Maximum Effect T/C (B16 melanoma) | Optimum Dose (P388 leukemia) [mg/kg] | Maximum Effect T/C (P388 leukemia) | also measured
COc1cccc2c1C(=O)c1c(O)c3c(c(O)c1C2=O)C[C@@](O)(C(C)=O)C[C@@H]3O[C@H]1C[C@H](NC(=O)OCc2ccccc2)[C@H](O)[C@H](C)O1 [Compound 29, DAU Benzyl Carbamate] |  |  |  |  | Optimum Dose (L1210 leukemia): 9.0 mg/kg; in-vivo activity (L1210 leukemia): inactive; Maximum Effect T/C (L1210 leukemia): 100
COc1cccc2c1C(=O)c1c(O)c3c(c(O)c1C2=O)C[C@@](O)(C(C)=O)C[C@@H]3O[C@H]1C[C@H](N)[C@H](O)[C@H](C)O1 [Compound 28, daunomycin, reference compound] |  |  |  |  | Optimum Dose (L1210 leukemia): 3.2 mg/kg; Maximum Effect T/C (L1210 leukemia): 154
Benzyl Carbamate Disulfide [Compound 12] |  |  |  |  | stability in buffered aqueous methanol ([1]; aqueous methanol buffered between pH 6 to 8, no reducing agent): stable for several days; release of p-nitroaniline upon treatment with dithiothreitol ([1]; dithiothreitol, uv/vis and HPLC): p-nitroaniline was released
CO[C@@]12[C@H](COC(N)=O)C3=C(C(=O)C(C)=C(N)C3=O)N1C[C@H]1[C@@H]2N1C(=O)OCc1ccc(SSc2ccccn2)cc1 [Compound 20, MMC Benzyl Carbamate Disulfide] | 12.8 | 145 | 25.6 | 353 | 
MMC Benzyl Carbamate Disulfide [Compound 19] |  |  | 51.2 | 185 | 
MMC Benzyl Carbamate [Compound 17] | 4.8 | 96 | 12.8 | 144 | antitumor activity (B16 melanoma): little activity
MMA Benzyl Carbamate Disulfide [Compound 27] | 9.6 | 182 | 12.8 | 163 | 
mitomycin C [Compound 16, reference compound] | 3.0 | 143 | 3.2 | 266 | 
MMC Benzyl Carbamate Disulfide [Compound 21] | 6.4 | 123 | 12.8 | 222 | 
CO[C@@]12[C@H](COC(N)=O)C3=C(C(=O)C(C)=C(N)C3=O)N1C[C@H]1[C@@H]2N1C(=O)OCc1ccccc1SSc1ccccn1 [Compound 18, MMC Benzyl Carbamate Disulfide] |  |  | 51.2 | 195 | 
MMA Benzyl Carbamate Disulfide [Compound 26] | 3.2 | 182 | 3.2 | 163 | 
MMA Benzyl Carbamate Disulfide [Compound 23] | 6.4 | 124 |  |  | antitumor activity (B16 melanoma): little activity
DAU Benzyl Carbamate Disulfide [Compound 30] |  |  |  |  | Optimum Dose (L1210 leukemia): 3.0 mg/kg; in-vivo activity (L1210 leukemia): inactive; Maximum Effect T/C (L1210 leukemia): 100
COC1=C(C)C(=O)C2=C(C1=O)[C@@H](COC(N)=O)[C@@]1(OC)[C@H]3N[C@H]3CN21 [Compound 22, mitomycin A, reference compound] | 0.4 | 182 | 3.2 | 180 | 
MMA Benzyl Carbamate Disulfide [Compound 25] | 3.2 | 191 | 3.2 | 153 | 
